19 molecules from the supplement of paper PMC4862054 can be followed below.

Common to all, as to experiment: normalised viability (% of control), CellTiter-Blue; higher = more viable cells (about 100 = DMSO control)
Settings in all cases: incubation time: 72 h
(Alamar Blue is a resazurin reagent that responds to reducing activity.)

Assay [1] deals with CAL-85-1. As for the experimental part:
(§1)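 DSRT, CellTiter-Blue viability, 72 h incubation. Signal is normalised to DMSO and benzethonium chloride controls. Value is the normalised response at dose 6.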

Assay [2] deals with CAL-148. As for the experimental part:
as §1

Assay [3] concerns HDQ-P1. As for the experimental part: as §1
Assay [4] relates to MDA-MB-453. As for the experimental part:
as §1

The test system of assay [5] is DU-4475. As for the experimental part: as §1
Assay [6] deals with CAL-51. As for the experimental part:
as §1

In assay [7] the test system is CAL-85-1. As for the experimental part:
(§2)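 DSRT, CellTiter-Blue viability, 72 h incubation. Signal is normalised to DMSO and benzethonium chloride controls. Value is the normalised response at dose 8.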
This is another data set of the same source.

Assay [8] relates to CAL-148. As for the experimental part: as §2
The source holds these as a separate data set.

For assay [9], the system named is HDQ-P1. As for the experimental part: as §2
This is another data set of the same source.

Assay [10] relates to MDA-MB-453. As for the experimental part:
as §2
The source holds these as a separate data set.

The test system of assay [11] is DU-4475. As for the experimental part:
as §2
The source holds these as a separate data set.

Assay [12] has as its system CAL-51. As for the experimental part: as §2
This is another data set of the same source.

Where “and” joins values, the source holds several entries; their conditions need not be identical. Equal entries are not always repeated.

`C=CCn1c(=O)c2cnc(Nc3ccc(N4CCN(C)CC4)cc3)nc2n1-c1cccc(C(C)(C)O)n1` [MK1775] (300 nM): the normalised viability in the assay on CAL-85-1 [1] is 66.6%; with CAL-148 [2], 45.3%; with HDQ-P1 [3], 49.3%; with MDA-MB-453 [4], 60%; in the assay on DU-4475 [5] it was 68.7%; in the assay on CAL-51 [6], 62.9%.
Regarding `C=CCn1c(=O)c2cnc(Nc3ccc(N4CCN(C)CC4)cc3)nc2n1-c1cccc(C(C)(C)O)n1` [MK1775] (3000 nM), the normalised viability is 19.2% in the assay with CAL-85-1 [7]; 6.03% in the assay on CAL-148 [8]; 27.3% in the assay with HDQ-P1 [9]; 19.3% with MDA-MB-453 [10]; 2.03% in the assay on DU-4475 [11]; 7.19% in the assay with CAL-51 [12].
Consider `CN(Cc1cnc2nc(N)nc(N)c2n1)c1ccc(C(=O)N[C@@H](CCC(=O)O)C(=O)O)cc1` [Methotrexate] (300 nM), for which the normalised viability amounted to 68.7% in the assay with CAL-85-1 [1]; 66.8% in the assay with CAL-148 [2]; 69% with HDQ-P1 [3]; 95.2% in the assay on MDA-MB-453 [4]; 110% in the assay with DU-4475 [5]; 48.6% with CAL-51 [6].
Regarding `CN(Cc1cnc2nc(N)nc(N)c2n1)c1ccc(C(=O)N[C@@H](CCC(=O)O)C(=O)O)cc1` [Methotrexate] (3000 nM), the normalised viability came to 57.7% in the assay with CAL-85-1 [7]; 56.3% in the assay on CAL-148 [8]; 82.7% with HDQ-P1 [9]; 91.4% in the assay with MDA-MB-453 [10]; 101% in the assay with DU-4475 [11]; 39.6% with CAL-51 [12].
Regarding `COc1c2occc2cc2ccc(=O)oc12` [Methoxsalen] (300 nM), the normalised viability in the assay with CAL-85-1 [1] stood at 107%; in the assay on CAL-148 [2], 114%; in the assay with HDQ-P1 [3], 88.7%; with MDA-MB-453 [4], 99.9%; in the assay with DU-4475 [5], 111%; with CAL-51 [6], 104%.
As for `COc1c2occc2cc2ccc(=O)oc12` [Methoxsalen] (3000 nM), the normalised viability turned out to be 96.2% in the assay on CAL-85-1 [7]; 91.4% in the assay with CAL-148 [8]; 118% with HDQ-P1 [9]; 114% in the assay on MDA-MB-453 [10]; 94.6% with DU-4475 [11]; 112% in the assay with CAL-51 [12].
As for `CO[C@@H]1[C@H](N(C)C(=O)c2ccccc2)C[C@H]2O[C@]1(C)n1c3ccccc3c3c4c(c5c6ccccc6n2c5c31)C(=O)NC4` [Midostaurin] (300 nM), the normalised viability with CAL-85-1 [1] came out at 86.6%; with CAL-148 [2] it was 106%; in the assay with HDQ-P1 [3] it was 53.6%; in the assay on MDA-MB-453 [4], 65.5%; in the assay with DU-4475 [5], 76%; in the assay with CAL-51 [6], 28.9%.
Consider `CO[C@@H]1[C@H](N(C)C(=O)c2ccccc2)C[C@H]2O[C@]1(C)n1c3ccccc3c3c4c(c5c6ccccc6n2c5c31)C(=O)NC4` [Midostaurin] (3000 nM), for which the normalised viability with CAL-85-1 [7] was found to be 73.4%; in the assay with CAL-148 [8], 84.4%; with HDQ-P1 [9] it was 50.5%; in the assay with MDA-MB-453 [10] it was 69.6%; in the assay on DU-4475 [11], 3.23%; in the assay with CAL-51 [12] it was 6.39%.
As for `CO[C@@]12[C@H](COC(N)=O)C3=C(C(=O)C(C)=C(N)C3=O)N1C[C@@H]1N[C@@H]12` [Mitomycin C] (300 nM), the normalised viability with CAL-85-1 [1] turned out to be 98.7%; in the assay with CAL-148 [2], 105%; with HDQ-P1 [3] it was 83.7%; with MDA-MB-453 [4] it was 110%; with DU-4475 [5], 86%; with CAL-51 [6], 102%.
For the molecule `CO[C@@]12[C@H](COC(N)=O)C3=C(C(=O)C(C)=C(N)C3=O)N1C[C@@H]1N[C@@H]12` [Mitomycin C] (3000 nM), the normalised viability was 71.6% in the assay with CAL-85-1 [7]; 48.5% in the assay on CAL-148 [8]; 85.2% in the assay with HDQ-P1 [9]; 58.8% in the assay on MDA-MB-453 [10]; 91.5% in the assay on DU-4475 [11]; 102% in the assay with CAL-51 [12].
In the case of `CCNC(=O)c1noc(-c2cc(C(C)C)c(O)cc2O)c1-c1ccc(CN2CCOCC2)cc1` [NVP-AUY922] (30 nM), the normalised viability with CAL-85-1 [1] was 30.5%; in the assay with CAL-148 [2], 16%; in the assay with HDQ-P1 [3], 18%; in the assay with MDA-MB-453 [4], 9.09%; with DU-4475 [5], 0.85%; in the assay on CAL-51 [6] it was 29.4%.
For `CCNC(=O)c1noc(-c2cc(C(C)C)c(O)cc2O)c1-c1ccc(CN2CCOCC2)cc1` [NVP-AUY922] (300 nM), the normalised viability in the assay with CAL-85-1 [7] turned out to be 24.6%; with CAL-148 [8] it was 16.3%; with HDQ-P1 [9], 30.4%; in the assay on MDA-MB-453 [10] it was 8.88%; in the assay with DU-4475 [11], 0.62%; in the assay with CAL-51 [12], 8.64%.
Consider `CC1(C)CCC(c2ccc(Cl)cc2)=C(CN2CCN(c3ccc(C(=O)NS(=O)(=O)c4ccc(N[C@H](CCN5CCOCC5)CSc5ccccc5)c(S(=O)(=O)C(F)(F)F)c4)cc3)CC2)C1` [Navitoclax] (300 nM), for which the normalised viability with CAL-85-1 [1] was 75.2%; in the assay on CAL-148 [2], 90.4%; in the assay with HDQ-P1 [3] it was 50.2%; with MDA-MB-453 [4], 78.1%; in the assay on DU-4475 [5] it was 47.2%; with CAL-51 [6], 99.9%.
On to `CC1(C)CCC(c2ccc(Cl)cc2)=C(CN2CCN(c3ccc(C(=O)NS(=O)(=O)c4ccc(N[C@H](CCN5CCOCC5)CSc5ccccc5)c(S(=O)(=O)C(F)(F)F)c4)cc3)CC2)C1` [Navitoclax] (3000 nM), for which the normalised viability is 87.8% in the assay on CAL-85-1 [7]; 71% in the assay on CAL-148 [8]; 43.5% with HDQ-P1 [9]; 70.3% in the assay on MDA-MB-453 [10]; 20.1% in the assay on DU-4475 [11]; 95.3% with CAL-51 [12].
Take `Cc1cn(-c2cc(NC(=O)c3ccc(C)c(Nc4nccc(-c5cccnc5)n4)c3)cc(C(F)(F)F)c2)cn1` [Nilotinib] (300 nM): the normalised viability is 92.1% and 86% in the assay with CAL-85-1 [1]; 94.6% and 101% in the assay with CAL-148 [2]; 47.2% and 70.8% in the assay on HDQ-P1 [3]; 94.5% and 91.4% with MDA-MB-453 [4]; 90.1% and 113% in the assay with DU-4475 [5]; 109% and 112% in the assay with CAL-51 [6].
Consider `Cc1cn(-c2cc(NC(=O)c3ccc(C)c(Nc4nccc(-c5cccnc5)n4)c3)cc(C(F)(F)F)c2)cn1` [Nilotinib] (3000 nM), for which the normalised viability with CAL-85-1 [7] was 69.3% and 78.6%; in the assay with CAL-148 [8], 83.9% and 89.2%; in the assay on HDQ-P1 [9], 67.9% and 66.5%; in the assay on MDA-MB-453 [10], 87.6% and 97.1%; in the assay with DU-4475 [11], 97.8% and 107%; in the assay on CAL-51 [12], 108% and 115%.
With `C=CCN(/C=C1/C(=O)O[C@H](COC)[C@@]2(C)C1=C(O)C(=O)C1=C2[C@H](OC(C)=O)C[C@]2(C)C(=O)CC[C@@H]12)CC=C` [PX-866] (300 nM), the normalised viability was determined as 103% with CAL-85-1 [1]; 116% with CAL-148 [2]; 75.8% in the assay with HDQ-P1 [3]; 112% with MDA-MB-453 [4]; 93% with DU-4475 [5]; 110% with CAL-51 [6].
`C=CCN(/C=C1/C(=O)O[C@H](COC)[C@@]2(C)C1=C(O)C(=O)C1=C2[C@H](OC(C)=O)C[C@]2(C)C(=O)CC[C@@H]12)CC=C` [PX-866] (3000 nM): the normalised viability in the assay on CAL-85-1 [7] is 102%; with CAL-148 [8] it was 108%; in the assay with HDQ-P1 [9] it was 70.2%; in the assay with MDA-MB-453 [10], 114%; in the assay on DU-4475 [11] it was 95.4%; with CAL-51 [12], 107%.
Regarding `CC[C@H](CO)Nc1nc(NCc2ccccc2)c2ncn(C(C)C)c2n1` [Roscovitine] (300 nM), the normalised viability in the assay on CAL-85-1 [1] came to 93.7%; with CAL-148 [2], 88.6%; in the assay with HDQ-P1 [3], 59.7%; with MDA-MB-453 [4], 86.9%; with DU-4475 [5] it was 97.5%; in the assay with CAL-51 [6], 104%.
